Results on four compounds are retold here after ChEMBL document CHEMBL3044748, “Phyllostictines AD, oxazatricycloalkenones produced by Phyllosticta cirsii, a potential mycoherbicide for Cirsium arvense biocontrol” (Tetrahedron, 2008).

Activity calls are given as the source filed them. The rule behind the calls is not given here.

A short description of data set [1]: Zootoxic activity against larvae of Artemia salina (brine shrimp) assessed as mortality at 10^-4 M. It counts as ADME, organism-based. The following applies: in vivo.
For a further data set, the system named is Escherichia coli. Nature of the data set: Antibacterial activity against Escherichia coli up to 100 ug/disk. Type of data set: functional, organism-based.
The subject of a further data set is Lactobacillus sp. Nature of the data set: Antibacterial activity against Lactobacillus sp. at 5 ug/disk. Type of data set: functional, organism-based.
In the next data set the test system is Geotrichum candidum. Nature of the data set: Antifungal activity against Galactomyces geotrichum up to 100 ug/disk. Type of data set: functional, organism-based.
The test system of another data set is Cirsium arvense. Nature of the data set: Phytotoxic activity against Cirsium arvense (Canada thistle) assessed as necrosis spot at 6 x 10^-3 M after 3 days by leaf puncture assay. It counts as functional, organism-based.
A further data set has as its system Artemia salina. As to the kind of experiment: Zootoxic activity against larvae of Artemia salina (brine shrimp) assessed as mortality. It counts as ADME, organism-based. As to conditions: in vivo.

As usually defined, the mortality is the percentage killed.

For `CCN1C(=O)/C2=C3\CO[C@@](OC)([C@@H](O)CCCCC[C@]21C)[C@H]3O` [PHYLLOSTICTINE A], in data set [1], the mortality at 100 µM came out at 24%. Moreover, the result in the data set with Escherichia coli and in the data set with Geotrichum candidum was inactive. In addition, the result in the data set on Lactobacillus sp. and in the data set on Cirsium arvense was Active.

Regarding `CO[C@]12OC/C(=C3\C(=O)N(C)CC[C@]3(C)C(=O)CCCC[C@@H]1O)[C@@H]2O`, the result with Cirsium arvense was Active.

With `CCN1C(=O)/C2=C3\CO[C@@](OC)([C@@H](O)CCC[C@]21C)[C@H]3O` [PHYLLOSTICTINE B], the Activity result in the data set with Artemia salina is given as “Non-toxic”. Moreover, the result in the data set with Escherichia coli and in the data set on Geotrichum candidum was inactive. Moreover, the outcome with Lactobacillus sp. and in the data set on Cirsium arvense was Active.

Regarding `CCN1C(=O)/C2=C3\CO[C@@](OC)([C@@H](O)CCCCC[C@]21C(C)O)[C@H]3O` (some centres not stated), the outcome with Cirsium arvense was inactive.
